This note sets out measurements from patent US20260001928A1 (CORTERIA PHARMACEUTICALS, priority 2022, published 2026).

*1 amine or outer side, *2 acyl side, *3 side chain or, on linkers, in order; H or OH if unused. Where a SMILES comes first, the peptide text is derived from it. Side-chain parts run from the residue outwards. [ ]: non-standard residue; d: D form. The star is where a group is joined. C18 diacid = O=C(O)CCCCCCCCCCCCCCCCC(=O)*; C16 diacid = O=C(O)CCCCCCCCCCCCCCC(=O)*; γGlu = O=C(O)[C@H](CCC(=O)[*:2])N[*:1]; C14 diacid = O=C(O)CCCCCCCCCCCCC(=O)*; NMeI = CC[C@H](C)[C@H](NC)C(=O)O; Api = NC1(C(=O)O)CCNCC1; Pentanoyl = CCCCC(=O)*; AEEA = NCCOCCOCC(=O)O; Aib = CC(C)(N)C(=O)O; Propionyl = CCC(=O)*

As usually defined, the EC50 is the concentration at which the effect is half-maximal.

The target in one experiment is T1, human CRF2a receptor (Homo sapiens, UniProt Q13324).
T1 construct: expressed in transfected cells; host or cells: TeloHEAC cells
T1 sequence (Q13324 1-411): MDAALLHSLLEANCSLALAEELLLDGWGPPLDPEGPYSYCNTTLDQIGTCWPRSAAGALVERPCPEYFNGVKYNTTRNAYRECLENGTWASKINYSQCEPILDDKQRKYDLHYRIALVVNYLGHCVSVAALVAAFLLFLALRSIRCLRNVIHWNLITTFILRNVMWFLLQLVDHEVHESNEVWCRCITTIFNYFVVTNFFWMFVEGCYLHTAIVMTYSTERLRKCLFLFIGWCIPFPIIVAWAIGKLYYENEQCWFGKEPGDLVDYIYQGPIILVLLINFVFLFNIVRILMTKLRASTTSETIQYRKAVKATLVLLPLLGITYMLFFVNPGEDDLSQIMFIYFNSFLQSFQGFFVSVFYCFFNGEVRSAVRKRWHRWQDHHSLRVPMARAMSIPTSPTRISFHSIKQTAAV
The experiment can be described thus: Activity at human CRF2a receptor, cAMP functional assay in TeloHEAC cells. Particulars: TeloHEAC cells stably expressing human CRF2a receptor, relative to urocortin 2 (100 nM = 100%). The experiment is classed as cell-based. The method, boiled down:
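TeloHEAC cells stably expressing human CRF2a (10000 cells/well, suspended in HBSS/20 mM HEPES with 2 mM IBMX) were exposed to compounds for 30 min at 37 °C. cAMP was read as the 665/620 nm fluorescence ratio after 1 h at room temperature. EC50 was derived relative to 100 nM urocortin 2, set as 100%.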

In another experiment the target is T2, CFR1R receptor (Homo sapiens, UniProt P34998).
T2 construct: host or cells: CHO-K1 (clone 2)
T2 sequence (P34998 24-415): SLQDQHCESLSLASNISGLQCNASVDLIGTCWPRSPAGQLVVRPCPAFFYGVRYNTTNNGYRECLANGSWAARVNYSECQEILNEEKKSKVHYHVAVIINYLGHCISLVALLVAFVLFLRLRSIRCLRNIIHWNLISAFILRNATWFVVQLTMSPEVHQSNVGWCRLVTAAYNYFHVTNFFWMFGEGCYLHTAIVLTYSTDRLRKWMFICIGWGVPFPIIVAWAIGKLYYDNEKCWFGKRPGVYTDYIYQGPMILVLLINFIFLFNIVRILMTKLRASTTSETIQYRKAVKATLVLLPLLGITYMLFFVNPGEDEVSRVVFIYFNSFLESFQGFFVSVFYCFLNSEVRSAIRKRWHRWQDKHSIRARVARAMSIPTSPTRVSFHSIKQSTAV
In words: Activity at anti-target CFR1R receptor, cAMP assay in CRF1R-overexpression CHO-K1 cells. Type of experiment: cell-based. To be noted: 100% = Sauvagine at 100 nM; for EC50: cAMP. In short, it runs like this: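 Run as for the TeloHAEC line, except the full-activation control well received Sauvagine (100 nM) and final density was 4000 cells/well. Cells from clone 2 came from frozen aliquots of near-confluent cultures.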
For orientation: Cyclic AMP is a second messenger, typically raised through Gs and lowered through Gi signalling.

On to `CCCCC(=O)N[C@H](C(=O)N[C@@H](CC(C)C)C(=O)N[C@@H](CO)C(=O)N[C@@H](CC(C)C)C(=O)N[C@@H](CC(=O)O)C(=O)N[C@@H](C(=O)N1CCC[C@H]1C(=O)N[C@H](C(=O)N[C@@H](CCCCN)C(=O)N[C@@H](CC(C)C)C(=O)N[C@@H](CCCCNC(=O)COCCOCCNC(=O)COCCOCCNC(=O)CC[C@H](NC(=O)CCCCCCCCCCCCCCCCC(=O)O)C(=O)O)C(=O)N[C@@H](CCCCN)C(=O)N[C@H](C(=O)N[C@@H](CC(C)C)C(=O)N[C@@H](CC(C)C)C(=O)N[C@@H](CCC(=O)O)C(=O)N[C@@H](CCC(N)=O)C(=O)N[C@@H](CCC(=O)O)C(=O)N[C@@H](CCCCN)C(=O)N[C@@H](CCC(N)=O)C(=O)N[C@@H](CCCCN)C(=O)N[C@@H](CCCCN)C(=O)N[C@@H](CCC(N)=O)C(=O)N[C@@H](CCCNC(=N)N)C(=O)N[C@@H](CCC(=O)O)C(=O)N[C@@H](CCC(N)=O)C(=O)N[C@@H](C)C(=O)N[C@@H](CCC(=O)O)C(=O)N[C@H](C(=O)N[C@@H](CC(N)=O)C(=O)NC(C)(C)C(=O)N[C@@H](CCC(N)=O)C(=O)N[C@H](C(=O)N[C@@H](CC(C)C)C(=O)N[C@@H](C)C(=O)N[C@@H](CCC(N)=O)C(=O)N[C@H](C(N)=O)C(C)C)[C@@H](C)CC)[C@@H](C)O)[C@@H](C)CC)[C@@H](C)CC)C(C)C)C(C)C` [compound 201] (Pentanoyl-VLSLD[dV]PIKLK([AEEA-AEEA-γGlu-C18 diacid])KILLEQEKQKKQREQAETN[Aib]QILAQV-NH2), for which the EC50 at human CRF2a receptor is 1.37 nM; at CFR1R receptor, over 250 nM. Also, the “Emax (% I)” value on CFR1R receptor stood at 5 % I.
`CC[C@H](C)[C@H](NC(C)=O)C(=O)N[C@H](C(=O)N[C@@H](CC(C)C)C(=O)N[C@@H](CO)C(=O)N[C@@H](CC(C)C)C(=O)N[C@@H](CC(=O)O)C(=O)N[C@@H](C(=O)N1CCC[C@H]1C(=O)N[C@H](C(=O)NCC(=O)N[C@@H](CC(C)C)C(=O)N[C@@H](CCCCNC(=O)CC[C@H](NC(=O)CCCCCCCCCCCCCCCCC(=O)O)C(=O)O)C(=O)N[C@@H](CCCCN)C(=O)N[C@H](C(=O)N[C@@H](CC(C)C)C(=O)N[C@@H](CC(C)C)C(=O)N[C@@H](CCC(=O)O)C(=O)N[C@@H](CCC(N)=O)C(=O)N[C@@H](CCC(=O)O)C(=O)N[C@@H](CCCCN)C(=O)N[C@@H](CCC(N)=O)C(=O)N[C@@H](CCCCN)C(=O)N[C@@H](CCCCN)C(=O)N[C@@H](CCC(N)=O)C(=O)N[C@@H](CCCNC(=N)N)C(=O)N[C@@H](CCC(=O)O)C(=O)N[C@@H](CCC(N)=O)C(=O)N[C@@H](C)C(=O)N[C@@H](CCC(=O)O)C(=O)N[C@H](C(=O)N[C@@H](CC(N)=O)C(=O)NC(C)(C)C(=O)N[C@@H](CCC(N)=O)C(=O)N[C@H](C(=O)N[C@@H](CC(C)C)C(=O)N[C@@H](C)C(=O)N[C@@H](CCC(N)=O)C(=O)N[C@H](C(N)=O)C(C)C)[C@@H](C)CC)[C@@H](C)O)[C@@H](C)CC)[C@@H](C)CC)C(C)C)C(C)C` [compound 191] (Ac-IVLSLD[dV]PIGLK([γGlu-C18 diacid])KILLEQEKQKKQREQAETN[Aib]QILAQV-NH2) gave a half-maximal effective concentration (EC50) on human CRF2a receptor of 0.18 nM. Further, the “Emax (% I)” value on CFR1R receptor is 54 % I.
At human CRF2a receptor, `CCC(=O)N[C@H](C(=O)N[C@@H](CC(C)C)C(=O)N[C@@H](CO)C(=O)N[C@@H](CC(C)C)C(=O)N[C@@H](CC(=O)O)C(=O)N[C@H](C(=O)N1CCC[C@H]1C(=O)N[C@H](C(=O)N[C@@H](CCCCN)C(=O)N[C@@H](CC(C)C)C(=O)N[C@@H](CCCCNC(=O)COCCOCCNC(=O)COCCOCCNC(=O)CC[C@H](NC(=O)CCCCCCCCCCCCCCCCC(=O)O)C(=O)O)C(=O)N[C@@H](CCCCN)C(=O)N[C@H](C(=O)N[C@@H](CC(C)C)C(=O)N[C@@H](CC(C)C)C(=O)N[C@@H](CCC(=O)O)C(=O)N[C@@H](CCC(N)=O)C(=O)N[C@@H](CCC(=O)O)C(=O)N[C@@H](CCCCN)C(=O)N[C@@H](CCC(N)=O)C(=O)N[C@@H](CCCCN)C(=O)N[C@@H](CCCCN)C(=O)N[C@@H](CCC(N)=O)C(=O)N[C@@H](CCCNC(=N)N)C(=O)N[C@@H](CCC(=O)O)C(=O)N[C@@H](CCC(N)=O)C(=O)N[C@@H](C)C(=O)N[C@@H](CCC(=O)O)C(=O)N[C@H](C(=O)N[C@@H](CC(N)=O)C(=O)N[C@@H](CCCCN)C(=O)N[C@@H](CCC(N)=O)C(=O)N[C@H](C(=O)N[C@@H](CC(C)C)C(=O)N[C@@H](C)C(=O)N[C@@H](CCC(N)=O)C(=O)N[C@H](C(N)=O)C(C)C)[C@@H](C)CC)[C@@H](C)O)[C@@H](C)CC)[C@@H](C)CC)C(C)C)C(C)C` [compound 94] (Propionyl-VLSLDVPIKLK([AEEA-AEEA-γGlu-C18 diacid])KILLEQEKQKKQREQAETNKQILAQV-NH2) yielded an EC50 of 1.48 nM. Also, at CFR1R receptor, the “Emax (% I)” value is recorded as 0 % I and the 50% effective concentration (EC50) is over 250 nM.
The like results for `CC[C@H](C)[C@H](NC)C(=O)N[C@H](C(=O)N[C@@H](CC(C)C)C(=O)N[C@@H](CO)C(=O)N[C@@H](CC(C)C)C(=O)N[C@@H](CC(=O)O)C(=O)N[C@@H](C(=O)N1CCC[C@H]1C(=O)N[C@H](C(=O)N[C@@H](CCCCN)C(=O)N[C@@H](CC(C)C)C(=O)N[C@@H](CCCCNC(=O)CC[C@H](NC(=O)CCCCCCCCCCCCCCC(=O)O)C(=O)O)C(=O)N[C@@H](CCCCN)C(=O)N[C@H](C(=O)N[C@@H](CC(C)C)C(=O)N[C@@H](CC(C)C)C(=O)N[C@@H](CCC(=O)O)C(=O)N[C@@H](CCC(N)=O)C(=O)N[C@@H](CCC(=O)O)C(=O)N[C@@H](CCCCN)C(=O)N[C@@H](CCC(N)=O)C(=O)N[C@@H](CCCCN)C(=O)N[C@@H](CCCCN)C(=O)N[C@@H](CCC(N)=O)C(=O)N[C@@H](CCCNC(=N)N)C(=O)N[C@@H](CCC(=O)O)C(=O)N[C@@H](CCC(N)=O)C(=O)N[C@@H](C)C(=O)N[C@@H](CCC(=O)O)C(=O)N[C@H](C(=O)N[C@@H](CC(N)=O)C(=O)N[C@@H](C)C(=O)N[C@@H](CCC(N)=O)C(=O)N[C@H](C(=O)N[C@@H](CC(C)C)C(=O)N[C@@H](C)C(=O)N[C@@H](CCC(N)=O)C(=O)N[C@H](C(N)=O)C(C)C)[C@@H](C)CC)[C@@H](C)O)[C@@H](C)CC)[C@@H](C)CC)C(C)C)C(C)C` [compound 68] (H-[NMeI]VLSLD[dV]PIKLK([γGlu-C16 diacid])KILLEQEKQKKQREQAETNAQILAQV-NH2) were, in that order, 0.05 nM, 8 % I and over 250 nM.
The like results for `CC[C@H](C)[C@H](NC(C)=O)C(=O)N[C@H](C(=O)N[C@@H](CC(C)C)C(=O)N[C@@H](CO)C(=O)N[C@@H](CC(C)C)C(=O)N[C@@H](CC(=O)O)C(=O)N[C@@H](C(=O)N1CCC[C@H]1C(=O)N[C@H](C(=O)N[C@@H](CCCCN)C(=O)N[C@@H](CC(C)C)C(=O)N[C@@H](CCCCNC(=O)CC[C@H](NC(=O)CCCCCCCCCCCCC(=O)O)C(=O)O)C(=O)N[C@@H](CCCCN)C(=O)N[C@H](C(=O)N[C@@H](CC(C)C)C(=O)N[C@@H](CC(C)C)C(=O)N[C@@H](CCC(=O)O)C(=O)N[C@@H](CCC(N)=O)C(=O)N[C@@H](CCC(=O)O)C(=O)N[C@@H](CCCCN)C(=O)N[C@@H](CCC(N)=O)C(=O)N[C@@H](CCCCN)C(=O)N[C@@H](C)C(=O)N[C@@H](CCC(N)=O)C(=O)N[C@@H](CCCNC(=N)N)C(=O)N[C@@H](CCC(=O)O)C(=O)N[C@@H](CCC(N)=O)C(=O)N[C@@H](C)C(=O)N[C@@H](CCC(=O)O)C(=O)N[C@H](C(=O)N[C@@H](CC(N)=O)C(=O)NC1(C(=O)N[C@@H](CCC(N)=O)C(=O)N[C@H](C(=O)N[C@@H](CC(C)C)C(=O)N[C@@H](C)C(=O)N[C@@H](CCC(N)=O)C(=O)N[C@H](C(N)=O)C(C)C)[C@@H](C)CC)CCNCC1)[C@@H](C)O)[C@@H](C)CC)[C@@H](C)CC)C(C)C)C(C)C` [compound 169] (Ac-IVLSLD[dV]PIKLK([γGlu-C14 diacid])KILLEQEKQKAQREQAETN[Api]QILAQV-NH2) were, in that order, 1.34 nM, 13 % I and over 250 nM.
